Assay results reported in patent publication US20090143752A1, “Passive intraocular drug delivery devices and associated methods” (priority 2007, published 2009).

What was measured:
[1] = New Zealand White, rabbit, in vivo, 4 h
Description: A 100 microliter/30 G needle Hamilton syringe is used to administer a sub conjunctiva injection (n=2) of 20 microliters of 0.1M DSP at pH 7 into an eye of a New Zealand White Rabbit. The initial dose of DSP is 1.04 mg. […] The process is repeated for a total of 2 trials. About 23 micrograms of the approximate 1.04 mg subconjunctival injection of DSP are recovered from the whole eye after 4 hours. This illustrates the clearance effects of the transscleral pathway; in this case about 97.8 percent of the drug cleared the eye within four hours.

[2] = DSP in eye tissues after passive delivery from six chambered annular lens-shaped housing, immediate release (Example 2); assay type: in vivo, New Zealand White Rabbit; conditions: rabbit eye, 0.5 M DSP pH 7, 6.47 mgs in each of 3 chambers, housing on eye 20 minutes, 4 hours after application
Description: A six chambered annular lens-shaped housing is used to passively administer dexamethasone sodium phosphate (DSP) into the eye for immediate release. Chambers 1, 3, and 5 each contain a 2 mm Avalon Sponge hydrated with 25 μl of hydrogel and are further loaded with 6.47 mgs of 0.5 M DSP at pH 7 in each chamber. […] The process is repeated for a total of 4 trials.

C[C@@H]1C[C@H]2[C@@H]3CCC4=CC(=O)C=C[C@]4(C)[C@@]3(F)[C@@H](O)C[C@]2(C)[C@@]1(O)C(=O)COP(=O)(O)O [DSP, dexamethasone sodium phosphate]
percent of the drug cleared the eye [1]: about 97.8% | DSP Total Drug, Conjunctiva [2]: 6.2 ± 0.8 micrograms | DSP Total Drug, Retina/Choroid [2]: 1.1 ± 0.5 micrograms | DSP Total Drug, Sclera [2]: 4.3 ± 1.0 micrograms | DSP Total Drug, Whole Eye [2]: 14.9 ± 1.1 micrograms
